{
  "source": "patent US12702654B2",
  "about": "“Compositions and methods for treating homocystinuria and other conditions using polyamines” (THE REGENTS OF THE UNIVERSITY OF COLORADO, priority 2020, dated 2026)",
  "key": {"HO HCU mice [1]": {"tested_on": "HO HCU mice", "assay": "Plasma metabolite levels (tHcy, methionine cycle amino acids, SAM, SAH) in HO HCU mice", "format": "in vivo, mouse", "conditions": "for plasma Hcy / plasma cysteine levels: HO mice, about 3.0% (w/v) in drinking water ad libitum, normal methionine diet", "method": "It is noted that WT mice (n=6) include untreated controls. HO HCU mice (N=8, 4 of each sex in each group) were either untreated or treated with about 3.0% (w/v) glycine w/v or about 3.0% (w/v) serine given in drinking water supplied ad libitum for one week. Plasma samples were taken and Hcy and cysteine levels were determined. *** denotes a P value <0.0001.\nIn accordance with these methods, HO HCU mice (N=8, 4 of each sex in each group) were treated with either about 3.0% glycine w/v or about 3.0% w/v serine given in drinking water supplied ad libitum for one week in the presence and absence of about 3.0% w/v betaine. Plasma samples were taken from the mice at various times and Hcy levels were determined.\nPlasma Hcy levels were determined from HO HCU mice (n=8 per group) in the presence and absence of either about 5.0% w/v sodium formate alone or in combination with about 3.0% betaine given in drinking water given ad libitum.\nIn one exemplary method, mice were given zinc in drinking water. For this example, 8 HO HCU mice were provided drinking water supplemented with zinc (e.g. 0.05% w/v Zinc sulfate) given ad libitum for one week.\n(§1) In another exemplary method, the transsulfuration pathway and methionine-folate cycle pathways, as show in the sematic illustrated in FIG. 18A, were assessed. In brief, three experimental groups (n=8 for each group) of male mice consisting of either untreated WT controls or HO HCU mice in the presence or absence of betaine treatment. Betaine was administered by dissolving the compound in drinking water at 30 g/l and was supplied ad libitum to the mice for one week. Treatment water was replenished twice per week.\nA comparative reference data set was generated for these mice by examining plasma levels of tHcy, methionine, cysteine, serine, glycine, dimethylglycine, methylglycine (MG, SAM and SAH). In brief, determination of plasma levels of amino acids relevant to the methionine cycle were determined using methods similar to those described in Stabler et al., Blood. 81 (1993) 3404-3413, incorporated in its entirety herein. Determination of hepatic 5-methylTHF was performed by liquid chromatography-tandem mass spectrometry using methods similar to those described in Witham et al., PLoS One. 8 (2013) e77923, incorporated in its entirety herein. The global metabolomic analysis of methionine and folate cycle related metabolites was carried out by Metabolon, Inc. Briefly, sample preparation was performed utilizing the automated MicroLab STAR® system. Sample preparation was performed using a proprietary series of organic and aqueous extractions to remove the protein fraction while allowing maximum recovery of small molecules. The resulting extract was divided into two fractions: one for analysis by liquid chromatography and one for analysis by gas chromatography. Each sample was then frozen and dried under vacuum. The LC/mass spectrometer portion of the platform was based on a Waters ACQUITY UPLC and a Thermo-Finnigan LTQ mass spectrometer, which consisted of an electrospray ionization source and linear ion-trap mass analyzer. Samples were analyzed on a Thermo-Finnigan Trace DSQ fast-scanning single-quadrupole mass spectrometer using electron impact ionization. Identification of known chemical entities was based on comparison to library entries of authenticated standards. Tissue polyamines putrescine, spermidine and spermine and 5-methylthioadenosine (MTA) were determined by liquid chromatography-tandem mass spectrometry using methods similar to those described in Stevens et al., J Chromatogr A 1217 (2010) 3282-3288, incorporated in its entirety herein."}, "Cbs null mouse": {"tested_on": "Cbs null mouse", "assay": "Cbs null mouse model (Hcy, survival, liver injury)", "format": "in vivo", "conditions": "severe liver damage abolished BHMT-mediated betaine response", "source_text": "In another exemplary method, an acceptable mouse mode of HCU was used to study various effects of exemplary compositions disclosed herein on aberrant Hcy levels. To date, the majority of research on HCU had been performed using a CBS knockout mouse model. These Cbs (−/−) animals experienced pronounced liver injury and typically die within 2-3 weeks of birth.\nIn another exemplary method, agents were used to verify involvement of BHMT in the homocystinuria treatment process. In these exemplary methods, a Cbs null mouse was used where severe liver damage to the mouse model interferes with standard HCU treatments to reduce Hcy."}, "DMGDH": {"tested_on": "DMGDH", "assay": "Western blotting of hepatic DMGDH protein levels", "format": "in vivo, mouse", "conditions": "HO HCU mice, about 5.0% sodium formate alone or with about 3.0% betaine in drinking water, about one week", "source_text": "As shown in FIGS. 12A-12B, a Western blot comparing the level of DMGDH and GAPDH (control) for untreated (HO), treated (e.g. formate agent) and treated with standard treatment combinations (e.g. formate and trimethylglycine (e.g. betaine)) using the HCU mouse model (FIG. 12A); and further illustrating in a histogram plot (FIG. 12B), level of intensity of DMDGH for untreated (HO), treated (e.g. formate agent) and treated with standard treatment combinations (e.g. formate and trimethylglycine (e.g. betaine)) using the HCU mouse model in certain embodiments disclosed herein. Western blotting analysis of hepatic DMGDH protein levels in HO HCU mice in the presence and absence of either about 5.0% sodium formate alone or in combination with about 3.0% betaine given ad libitum in drinking water for about one week. N=9 per group. This figure is representative of three independent experiments."}, "HO HCU mice [2]": {"tested_on": "HO HCU mice", "assay": "Tail bleeding time / hypercoagulative phenotype in HO HCU mice", "format": "in vivo, mouse", "conditions": "4 mM solution in drinking water ad libitum, one week", "method": "In another exemplary method, effect of polyamines (e.g. spermidine and spermine) on the hypercoagulative phenotype induced by HCU was assessed which is a measure of treatment for genetic HCU where rapid coagulation is a side effect of these conditions. In brief, mice containing both the human CBS transgene and no functional copy of the mouse equivalent gene were identified by PCR from the litters of progeny of 11181×MKO^+/− F1 mice backcrossed to MKO^+/− mice. These mice were designated as “human only” (HO) mice and used as a human model of HCU. […] In order to further investigate the possible therapeutic potential of polyamine (e.g. spermidine and spermine) therapy in HCU, WT and HO HCU mice were given either: […]; […] in drinking water given ad libitum; or drinking water (untreated, control). After one week, tail bleeding times were determined for untreated wild type (WT) control B6 mice and HO HCU mice from all treatment groups."}, "MAT1A": {"tested_on": "MAT1A", "assay": "Western blotting of hepatic MAT1A expression", "format": "in vivo, mouse", "conditions": "HO HCU mice, 30 g/l in drinking water ad libitum, one week", "method": "(§2) To investigate the effects of these treatments upon the hepatic regulatory changes in enzyme expression induced by HCU, the human transgenic HO mouse model of HCU was used. In brief, experimental groups consisting of 8 HO mice on a C57BL/6J background and 8 C57BL/6J WT littermate control mice bred in house were used. Mice in both groups were male and aged between 3 and 4 months. Except where otherwise stated, all mice were maintained on standard chow. All diets were administered using a paired-feeding design to ensure isocaloric intake between all experimental groups and body weights were measured once per week. There was no significant difference in body weight between mice in any of the experimental groups. Betaine and taurine were in this example, both administered by dissolving these compounds in drinking water at 30 g/l (2% or 3% w/v) and were supplied ad libitum for one week. Treatment water was replenished twice per week.\n(§3) These observations are the first to report betaine and taurine acting to regulate expression of these processes. Therefore, this observation supports that taurine alone or in combination with betaine and other treatments for genetic homocystinuria are viable options for avoiding dietary restraints and treating these conditions."}, "glutathione": {"tested_on": "glutathione", "conditions": "taurine supplementation; cited from earlier work"}, "HO HCU mice [3]": {"tested_on": "HO HCU mice", "conditions": "taurine supplementation; cited from earlier work"}, "SHMT1": {"tested_on": "SHMT1", "assay": "Western blotting of hepatic SHMT1 expression", "format": "in vivo, mouse", "conditions": "HO mice, 30 g/l in drinking water ad libitum, one week", "method": "as §2, §3"}, "MTHFR": {"tested_on": "MTHFR", "assay": "Western blotting of hepatic MTHFR expression", "format": "in vivo, mouse", "conditions": "HO mice, 30 g/l in drinking water ad libitum, one week", "method": "as §2\n(§4) Western blotting analysis of SAHH, MTHFR and SHMT2 expression was performed in liver samples from HO mice in the presence and absence of betaine or taurine treatment."}, "[4]": {"conditions": "mouse, in vivo", "method": "as §1\nas §2, with “Betaine and taurine were in this example, both administered by dissolving these compounds in drinking water at 30 g/l (2% or 3% w/v) and were supplied ad libitum for one week. Treatment water was replenished twice per week.” left out"}, "SHMT2": {"tested_on": "SHMT2", "assay": "Western blotting of hepatic SHMT2 expression", "format": "in vivo, mouse", "conditions": "HO mice, 30 g/l in drinking water ad libitum, one week", "method": "as §2, §4"}, "SAHH": {"tested_on": "SAHH", "assay": "Western blotting of hepatic SAHH expression", "format": "in vivo, mouse", "conditions": "HO mice, 30 g/l in drinking water ad libitum, one week", "method": "as §2, §4"}, "[5]": {"tested_on": "cysteine oxidation pathways", "assay": "Cysteine oxidation pathways in HCU (HO model)", "format": "in vivo, mouse", "conditions": "30 g/l in drinking water, one week", "method": "as §2"}, "GNMT": {"tested_on": "GNMT", "assay": "Western blotting of hepatic GNMT expression", "format": "in vivo, mouse", "conditions": "HO HCU mice, 30 g/l in drinking water ad libitum, one week", "method": "as §2, §3"}, "human HCU patients": {"tested_on": "human HCU patients", "conditions": "taurine supplementation; cited from earlier work"}, "HO HCU mice [6]": {"tested_on": "HO HCU mice", "assay": "Plasma metabolite levels (tHcy, methionine cycle amino acids, SAM, SAH) in HO HCU mice", "format": "in vivo, mouse", "conditions": "taurine treatment"}},
  "data": [
    {"smiles": "O=S(=O)([O-])[O-].[Zn+2]", "note": "[Zinc sulfate]", "values": [
      {"measurement": "decrease in plasma homocysteine", "setting": "HO HCU mice [1]; 8 HO HCU mice, 0.05% w/v Zinc sulfate in drinking water ad libitum, one week, p<0.001", "result": 25, "unit": "%"}
    ]},
    {"smiles": "NCC(=O)O", "note": "[glycine]", "values": [
      {"measurement": "Hcy in Cbs null mouse model", "setting": "Cbs null mouse", "result": "unable to lower Hcy"},
      {"measurement": "plasma Hcy", "setting": "HO HCU mice [1]; one week", "result": "significantly lowered"},
      {"measurement": "plasma cysteine levels", "setting": "HO HCU mice [1]; one week", "result": "increased"}
    ]},
    {"smiles": "N[C@@H](CO)C(=O)O", "note": "[serine]", "values": [
      {"measurement": "Hcy in Cbs null mouse model", "setting": "Cbs null mouse", "result": "unable to lower Hcy"},
      {"measurement": "plasma Hcy", "setting": "HO HCU mice [1]; one week", "result": "significantly lowered"},
      {"measurement": "plasma cysteine levels", "setting": "HO HCU mice [1]; one week", "result": "increased"}
    ]},
    {"smiles": "O=C[O-].[Na+]", "note": "[sodium formate]", "values": [
      {"measurement": "Hcy in Cbs null mouse model", "setting": "Cbs null mouse", "result": "unable to lower Hcy"},
      {"measurement": "plasma Hcy levels", "setting": "HO HCU mice [1]; HO HCU mice, about 5.0% w/v sodium formate alone or with about 3.0% betaine in drinking water ad libitum, normal methionine/protein diet", "result": "significantly lowered"},
      {"measurement": "hepatic DMGDH expression levels", "setting": "DMGDH", "result": "restore normal expression levels"}
    ]},
    {"smiles": "NCCCCNCCCN", "note": "[spermidine]", "values": [
      {"measurement": "clotting time (tail bleeding time) compared to untreated HO mice", "setting": "HO HCU mice [2]", "result": "highly significant increase in clotting time"}
    ]},
    {"smiles": "NCCCNCCCCNCCCN", "note": "[spermine]", "values": [
      {"measurement": "clotting time (tail bleeding time) compared to untreated HO mice", "setting": "HO HCU mice [2]", "result": "significantly ameliorated"}
    ]},
    {"smiles": "NCCS(=O)(=O)O", "note": "[taurine]", "values": [
      {"measurement": "hepatic MAT1a expression", "setting": "MAT1A", "result": "induced expression"},
      {"measurement": "HCU-induced disturbances in glutathione metabolism and the gamma-glutamyl cycle", "setting": "glutathione", "result": "effectively normalized"},
      {"measurement": "efficacy of betaine treatment in mice", "setting": "HO HCU mice [3]", "result": "enhances the efficacy of betaine treatment"},
      {"measurement": "increase in hepatic SHMT1 expression", "setting": "SHMT1", "result": 35, "unit": "%"},
      {"measurement": "HCU-mediated induction of hepatic MTHFR expression", "setting": "MTHFR", "result": "essentially identical reversal"},
      {"measurement": "tolerability of doses", "setting": "[4]", "result": "well tolerated"},
      {"measurement": "HCU-induced repression of hepatic SHMT2", "setting": "SHMT2", "result": "essentially identical reversal"},
      {"measurement": "HCU-mediated induction of hepatic SAHH expression", "setting": "SAHH", "result": "essentially identical reversal"},
      {"measurement": "dysregulation of cysteine oxidation pathways in HCU", "setting": "[5]", "result": "ameliorate the dysregulation of cysteine oxidation pathways"},
      {"measurement": "hepatic GNMT expression", "setting": "GNMT", "result": "induced expression"},
      {"measurement": "endothelial dysfunction in human HCU patients", "setting": "human HCU patients", "result": "completely ablate endothelial dysfunction"},
      {"measurement": "effect upon lowering plasma tHcy levels", "setting": "HO HCU mice [6]", "result": "only a mild effect"}
    ]}
  ]
}
